Experiments:
Test in all cases: microbe, parasite or virus in culture
Pyricularia oryzae Cav. = details: read-out: Inhibition Ratio (%) / Pyricularia oryzae Cav.
[1] = test system: Phytophthora capsici P. CapasiciLeonian; details: read-out: Inhibition Ratio (%) / P. CapasiciLeonian
Botrytis cinerea Pers = details: read-out: Inhibition Ratio (%) / B. cinerea
[2] = test system: Sclerotinia sclerotiorum (Lib.) de Bary; details: read-out: Inhibition Ratio (%) / S. sclerotiorum
[3] = test system: Fusarium oxysporum Schl. F.sp. vasinfectum (Atk.) Snyd. & Hans.; details: read-out: Inhibition Ratio (%) / Fusarium oxysporum Schl. F.sp. vasinfectum (Atk.) Snyd. & Hans.

SMILES | inhibition at 50 µg/mL (Pyricularia oryzae Cav.) [%] | inhibition at 50 µg/mL [1] [%] | inhibition at 50 µg/mL (Botrytis cinerea Pers) [%] | inhibition at 50 µg/mL [2] [%] | inhibition at 50 µg/mL [3] [%]
CO[C@@H]1[C@H]2OC(C)(C)O[C@H]2O[C@@H]1Cn1cc(-c2ccc(Cl)cc2)nn1 [1-f, Furan glucosyl-1,2,3-triazole (1-f)] | 82.4 | 81.2 | 71 | 85.1 | 89
CO[C@H]1[C@@H](Cn2cc(-c3ccc(F)cc3)nn2)OC(OC(C)=O)[C@@H]1OC(C)=O (stereo partly drawn) [5-d, Furan glucosyl-1,2,3-triazole (5-d)] | 69.2 | 65.2 | 23.2 | 67.6 | 70.9
CO[C@H]1[C@@H](Cn2cc(-c3ccccc3)nn2)OC(O)[C@@H]1O (stereo partly drawn) [3-a, Furan glucosyl-1,2,3-triazole (3-a)] | 61.2 | 40.1 | 33.3 | 30.3 | 58.7
CO[C@H]1[C@@H](Cn2cc(C(C)O)nn2)OC(O)[C@@H]1O (stereo partly drawn) [3-g, Furan glucosyl-1,2,3-triazole (3-g)] | 21.5 | 23.1 | 11.5 | 13.7 | 23.4
CO[C@H]1[C@@H](Cn2cc(-c3ccc([N+](=O)[O-])cc3)nn2)OC(O)[C@@H]1O (stereo partly drawn) [3-e, Furan glucosyl-1,2,3-triazole (3-e)] | 23.1 | 44.7 | 17.1 | 39.6 | 25.6
COc1ccc(-c2cn(C[C@H]3OC(OC(C)=O)[C@H](OC(C)=O)[C@H]3OC)nn2)cc1 (stereo partly drawn) [5-c, Furan glucosyl-1,2,3-triazole (5-c)] | 40.8 | 47.2 | 19.2 | 43.1 | 30
CO[C@H]1[C@@H](Cn2cc(-c3ccc(Cl)cc3)nn2)OC(OC(C)=O)[C@@H]1OC(C)=O (stereo partly drawn) [5-f, Furan glucosyl-1,2,3-triazole (5-f)] | 60.5 | 68.2 | 27.6 | 56.1 | 71.5
CC(=O)OC1O[C@H](Cn2cc(-c3ccc(F)cc3)nn2)[C@H](OCc2ccccc2)[C@H]1OC(C)=O (stereo partly drawn) [6-d, Furan glucosyl-1,2,3-triazole (6-d)] | 50.2 | 57.1 | 26.7 | 64.7 | 58.6
CC(O)c1cn(C[C@H]2OC(O)[C@H](O)[C@H]2OCc2ccccc2)nn1 (stereo partly drawn) [4-g, Furan glucosyl-1,2,3-triazole (4-g)] | 21.3 | 24.5 | 12.1 | 13.5 | 20.9
Cc1cccc(-c2cn(C[C@H]3OC(O)[C@H](O)[C@H]3OCc3ccccc3)nn2)c1 (stereo partly drawn) [4-b, Furan glucosyl-1,2,3-triazole (4-b)] | 27.8 | 29.6 | 10.9 | 29.9 | 27.1
COc1ccc(-c2cn(C[C@H]3OC(O)[C@H](O)[C@H]3OC)nn2)cc1 (stereo partly drawn) [3-c, Furan glucosyl-1,2,3-triazole (3-c)] | 30.1 | 38.9 | 10.4 | 31.5 | 29.3
CO[C@H]1C(Cn2cc(-c3ccccc3)nn2)OC(OC(C)=O)[C@@H]1OC(C)=O (stereo partly drawn) [5-a, Furan glucosyl-1,2,3-triazole (5-a)] | 62.7 | 42.3 | 36.1 | 57.6 | 61.3
OC1O[C@H](Cn2cc(-c3ccc(F)cc3)nn2)[C@H](OCc2ccccc2)[C@H]1O (stereo partly drawn) [4-d, Furan glucosyl-1,2,3-triazole (4-d)] | 35.6 | 35.4 | 20.3 | 34.7 | 37.8
CO[C@H]1[C@@H](Cn2cc(-c3ccc(Cl)cc3)nn2)OC(O)[C@@H]1O (stereo partly drawn) [3-f, Furan glucosyl-1,2,3-triazole (3-f)] | 50.7 | 46.8 | 20.5 | 25.3 | 57.6
OC1O[C@H](Cn2cc(-c3ccc(Cl)cc3)nn2)[C@H](OCc2ccccc2)[C@H]1O (stereo partly drawn) [4-f, Furan glucosyl-1,2,3-triazole (4-f)] | 40.2 | 38.7 | 22.2 | 31.7 | 43.1
N#Cc1c(Cl)c(Cl)c(Cl)c(C#N)c1Cl [Chlorothalonil] | 89.2 | 94.2 | 98 | 95.5 | 94.2
OC1O[C@H](Cn2cc(-c3ccccc3)nn2)[C@H](OCc2ccccc2)[C@H]1O (stereo partly drawn) [4-a, Furan glucosyl-1,2,3-triazole (4-a)] | 37.8 | 21.2 | 19.5 | 26.4 | 35.4
CO[C@H]1[C@@H](Cn2cc(-c3ccc(F)cc3)nn2)OC(O)[C@@H]1O (stereo partly drawn) [3-d, Furan glucosyl-1,2,3-triazole (3-d)] | 47.8 | 50.2 | 19.1 | 38.4 | 40.2
CC(=O)OC1O[C@H](Cn2cc(-c3ccc([N+](=O)[O-])cc3)nn2)[C@H](OCc2ccccc2)[C@H]1OC(C)=O (stereo partly drawn) [6-e, Furan glucosyl-1,2,3-triazole (6-e)] | 48.9 | 50.3 | 27.4 | 56.3 | 59.3
CO[C@H]1[C@@H](Cn2cc(-c3ccc([N+](=O)[O-])cc3)nn2)OC(OC(C)=O)[C@@H]1OC(C)=O (stereo partly drawn) [5-e, Furan glucosyl-1,2,3-triazole (5-e)] | 56.9 | 67.7 | 22.1 | 64.9 | 69.5
CO[C@H]1[C@@H](Cn2cc(-c3cccc(C)c3)nn2)OC(O)[C@@H]1O (stereo partly drawn) [3-b, Furan glucosyl-1,2,3-triazole (3-b)] | 35.4 | 35.6 | 15.3 | 28.4 | 34.1

Reference: publication PMC6017136, “Efficient Synthesis and Bioactivity of Novel Triazole Derivatives” (Molecules : A Journal of Synthetic Chemistry and Natural …, 2018)
